Reference: patent US9624223B2, “Morphinan derivative” (THE KITASATO INSTITUTE, priority 2013, dated 2017)
Marks after values point to notes of the source that are not given here.

Tests used:
[1] = molecular target: T1, human opioid receptor κ (Homo sapiens, UniProt P41145); assay: Opioid receptor function test (Lance Ultra cAMP Kit), κ receptor; assay type: cell-based; details: for κ Receptor reaction ratio at the maximum concentration (reference value): 10 μM, maximum reaction not attained, U-69593 = 100%; for EC50: agonistic activity, human κ receptor-expressing CHO cells, cAMP, forskolin; for Emax: maximum reaction relative to U-69593 taken as 100%
T1 construct: host or cells: CHO cells
Experimental: (§1) Functional activities of the compounds of the present invention on the μ, δ, and κ opioid receptors were examined.
(§2) The test was performed by using Lance Ultra cAMP Kit (Perkin-Elmer) according the prescribed method. In the evaluation of the agonistic activity, each human opioid receptor (δ, μ, and κ, accession numbers and catalog numbers are mentioned below)-expressing CHO cells and 10 μM of a test compound were reacted for 30 minutes in the presence of forskolin in an assay buffer (1×HBSS, […], pH 7.4, […] (isobutylmethylxanthine), 7.5% BSA). The cAMP detection reagent included in the kit was then added, and 1 hour afterward, time decomposition fluorometry was performed by using EnVision plate reader (Perkin-Elmer). […] The Emax value was calculated as a ratio of the maximum reaction of the test compound based on the maximum reaction of each control drug, which was taken as 100%.
(§3) • (+)-4-[(αR)-α-(2S,5R)-4-Allyl-2,5-dimethyl-1-piperazinyl]-3-methoxybenzyl]-N,N-diethylbenzamide DAMGO: • [D-Ala^2,N-MePhe^4,Gly-ol]enkephalin U-69593: • (+)-(5α,7α,8β)-N-Methyl-N-[7-(1-pyrrolidinyl)-1-oxaspiro[4.5]dec-8-yl]benzeneacetamide Accession Numbers and Catalog Numbers δ: Catalog No. CT4607, accession No. NM_000911.2 μ: Catalog No. CT4605, accession No. NM_000914 κ: Catalog No. CT4606, accession No. NM_000912 (ChanTest Corporation)

[2] = molecular target: T2, human opioid receptor μ (Homo sapiens, UniProt P35372); assay: Opioid receptor function test (Lance Ultra cAMP Kit), μ receptor; assay type: cell-based; details: for EC50: agonistic activity, human μ receptor-expressing CHO cells, cAMP, forskolin; for Emax: maximum reaction relative to DAMGO taken as 100%; for μ Receptor reaction ratio at the maximum concentration (reference value): 10 μM, maximum reaction not attained, DAMGO = 100%
T2 construct: host or cells: CHO cells
Experimental: as §1, §2, §3

[3] = molecular target: T3, human opioid receptor δ (Homo sapiens, UniProt P41143); assay: Opioid receptor function test (Lance Ultra cAMP Kit), δ receptor; assay type: cell-based; details: for EC50: agonistic activity, human δ receptor-expressing CHO cells, cAMP, forskolin; for Emax: maximum reaction relative to SNC 80 taken as 100%
T3 construct: host or cells: CHO cells
Experimental: as §1, §2, §3

[4] = molecular target: T4, δ opioid receptor (Mus musculus, UniProt P32300); assay: Opioid receptor binding test, [3H]DPDPE, mouse cerebrum membrane fraction; details: read-out: Binding affinity (Ki, nM) δ
T4 construct: In the assays for the μ and δ receptors, the mouse cerebrum membrane fraction was used; from tissue; host or cells: mouse cerebrum membrane fraction
Experimental: (§4) Binding affinities of the compounds of the present invention to the μ, δ, and κ opioid receptors were examined.
(§5) According to a previous report (J. Biol. Chem., 2001, 276:15409-15414), mouse cerebrum and guinea pig cerebellum membrane fractions were prepared. As radioactive ligands for the opioid receptors, [^3H]DAMGO (μ opioid receptor), [^3H]DPDPE (δ opioid receptor), and [3H]U69,593 (κ opioid receptor) were used. In the assays for the μ and δ receptors, the mouse cerebrum membrane fraction was used, and in the assay for the κ receptor, guinea pig cerebellum membrane fraction was used. For the nonspecific binding, DAMGO, DPDPE, and U69,593 were used at 1 μM for μ, δ and κ receptors, respectively. Each receptor membrane fraction, radioactive ligand, and a sample at various concentrations were reacted for a predetermined time, and after the B/F separation, amount of radioactivity remained on the filter was measured with a liquid scintillation counter, and binding inhibition ratio of the test compound (IC50 value) was calculated. Ki value was calculated by using the resulting IC50 value in accordance with the following equation. Ki=IC50/(1+L/Kd) L: Concentration of radioactive ligand used Kd: Kd value of radioactive ligand
(§6) Further, selectivity for the δ receptor among the opioid receptors was determined by calculating ratio of the Ki value for μ or κ, and the Ki value for δ (μ/δ or κ/δ).
(§7) • [D-Ala^2,N-MePhe^4, Gly-Ol]enkephalin DPDPE: • [D-Pen^2,D-Pen^5]enkephalin

[5] = molecular target: T5, hERG channel (Homo sapiens, UniProt Q12809); assay: hERG potassium channel inhibition test (Qpatch16 patch clamp, CHO-K1 cells); assay type: cell-based; details: 10 μM; tail current inhibition, hERG-expressing CHO-K1 cells
T5 construct: expressed in transfected cells; host or cells: CHO-K1 cells
Experimental: The test was performed with Qpatch16 (Sophion Biosciences Inc.) full automatic patch clamp system using hERG channel-stably expressing CHO-K1 cells. The hERG channel inhibitory action of each test compound was obtained on the basis of inhibitory action against a tail current induced by a test pulse at […] for 1 second applied after retention at +20 mV for 2 seconds. The test compound was dissolved in an extracellular fluid (137 mM NaCl, 4 mM KCl, 1.8 mM CaCl2, 1 mM MgCl2, 10 mM D(+)-glucose, 10 mM HEPES, pH 7.4), and the solution was […] at room temperature for 5 minutes. The inhibition ratio was obtained from the ratio of the tail current value observed after the compound was applied based on the tail current value observed before the compound was applied, which was taken as 100%. Cells were used for the test, where the cells show a peak tail current value not smaller than 100 pA, tail current run-down smaller than 30% of the initial current value, leak current smaller than 50% of the peak value of the tail current, and series resistance value lower than 20 MΩ.

[6] = molecular target: T6, μ opioid receptor (Mus musculus, UniProt P42866); assay: Opioid receptor binding test, [3H]DAMGO, mouse cerebrum membrane fraction; details: ratio of Ki for μ to Ki for δ
T6 construct: In the assays for the μ and δ receptors, the mouse cerebrum membrane fraction was used; from tissue; host or cells: mouse cerebrum membrane fraction
Experimental: as §4, §5, §6, §7

[7] = molecular target: T7, κ opioid receptor (Cavia porcellus, UniProt P41144); assay: Opioid receptor binding test, [3H]U69,593, guinea pig cerebellum membrane fraction; details: ratio of Ki for κ to Ki for δ
T7 construct: in the assay for the κ receptor, guinea pig cerebellum membrane fraction was used; from tissue; host or cells: guinea pig cerebellum membrane fraction
Experimental: as §4, §5, §6

T1 sequence (P41145 whole entry): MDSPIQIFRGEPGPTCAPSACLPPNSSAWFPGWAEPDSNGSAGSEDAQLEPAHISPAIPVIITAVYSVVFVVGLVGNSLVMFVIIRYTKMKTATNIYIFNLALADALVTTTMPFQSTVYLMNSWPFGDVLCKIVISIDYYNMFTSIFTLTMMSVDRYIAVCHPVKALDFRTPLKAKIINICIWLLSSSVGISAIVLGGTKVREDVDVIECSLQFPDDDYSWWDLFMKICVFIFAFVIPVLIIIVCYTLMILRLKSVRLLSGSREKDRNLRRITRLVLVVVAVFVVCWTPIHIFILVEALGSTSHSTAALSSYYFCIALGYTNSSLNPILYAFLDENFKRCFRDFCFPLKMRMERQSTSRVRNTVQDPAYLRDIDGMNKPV
T3 sequence (P41143 whole entry): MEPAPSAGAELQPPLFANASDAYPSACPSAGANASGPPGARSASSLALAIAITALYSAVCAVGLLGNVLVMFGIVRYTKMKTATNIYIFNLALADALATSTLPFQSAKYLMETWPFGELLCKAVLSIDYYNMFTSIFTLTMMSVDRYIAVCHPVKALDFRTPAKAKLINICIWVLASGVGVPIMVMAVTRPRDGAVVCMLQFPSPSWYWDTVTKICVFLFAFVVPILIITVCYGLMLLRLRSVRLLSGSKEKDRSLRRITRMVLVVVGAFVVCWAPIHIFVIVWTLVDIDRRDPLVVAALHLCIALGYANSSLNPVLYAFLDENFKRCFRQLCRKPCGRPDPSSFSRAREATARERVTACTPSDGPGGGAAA
T4 sequence (P32300 whole entry): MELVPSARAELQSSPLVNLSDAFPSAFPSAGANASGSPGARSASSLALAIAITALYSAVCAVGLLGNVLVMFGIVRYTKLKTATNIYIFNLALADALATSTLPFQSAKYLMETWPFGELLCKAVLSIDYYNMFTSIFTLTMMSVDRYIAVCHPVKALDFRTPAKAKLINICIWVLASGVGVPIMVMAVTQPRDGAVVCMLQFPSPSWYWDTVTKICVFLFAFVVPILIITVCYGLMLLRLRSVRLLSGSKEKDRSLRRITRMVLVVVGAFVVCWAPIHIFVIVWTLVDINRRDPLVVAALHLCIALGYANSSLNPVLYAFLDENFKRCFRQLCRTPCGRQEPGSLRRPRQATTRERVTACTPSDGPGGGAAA
T5 sequence (Q12809 whole entry): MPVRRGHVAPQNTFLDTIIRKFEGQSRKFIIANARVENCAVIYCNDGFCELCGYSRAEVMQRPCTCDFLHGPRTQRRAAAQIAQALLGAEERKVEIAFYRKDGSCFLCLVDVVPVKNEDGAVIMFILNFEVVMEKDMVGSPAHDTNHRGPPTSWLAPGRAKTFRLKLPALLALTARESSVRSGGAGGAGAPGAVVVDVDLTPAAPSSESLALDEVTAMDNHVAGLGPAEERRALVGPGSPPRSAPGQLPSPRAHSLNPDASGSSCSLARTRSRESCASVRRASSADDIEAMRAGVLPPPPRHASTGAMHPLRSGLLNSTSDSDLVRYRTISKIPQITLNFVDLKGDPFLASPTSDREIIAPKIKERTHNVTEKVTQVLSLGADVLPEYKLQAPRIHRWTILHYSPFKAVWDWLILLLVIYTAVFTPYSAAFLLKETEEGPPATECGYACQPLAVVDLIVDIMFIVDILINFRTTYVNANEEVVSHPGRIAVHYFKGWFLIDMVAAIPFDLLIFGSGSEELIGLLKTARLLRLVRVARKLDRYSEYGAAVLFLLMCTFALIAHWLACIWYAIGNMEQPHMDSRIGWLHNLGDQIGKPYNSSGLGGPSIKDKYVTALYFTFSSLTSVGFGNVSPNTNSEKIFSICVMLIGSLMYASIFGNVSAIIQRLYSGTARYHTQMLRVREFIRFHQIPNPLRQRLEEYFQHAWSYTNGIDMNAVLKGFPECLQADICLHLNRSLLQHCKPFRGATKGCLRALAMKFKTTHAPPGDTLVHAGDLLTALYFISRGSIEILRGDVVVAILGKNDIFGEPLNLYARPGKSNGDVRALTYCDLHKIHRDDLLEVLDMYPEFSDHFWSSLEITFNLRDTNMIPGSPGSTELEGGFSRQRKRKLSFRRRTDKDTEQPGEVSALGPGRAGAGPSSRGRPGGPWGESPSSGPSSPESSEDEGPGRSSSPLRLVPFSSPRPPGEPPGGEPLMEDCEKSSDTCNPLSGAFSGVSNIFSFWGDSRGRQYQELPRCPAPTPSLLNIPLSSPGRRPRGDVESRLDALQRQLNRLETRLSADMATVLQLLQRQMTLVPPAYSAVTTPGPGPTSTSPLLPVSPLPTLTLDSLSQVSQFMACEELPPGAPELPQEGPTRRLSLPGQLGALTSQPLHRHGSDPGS
T7 sequence (P41144 whole entry): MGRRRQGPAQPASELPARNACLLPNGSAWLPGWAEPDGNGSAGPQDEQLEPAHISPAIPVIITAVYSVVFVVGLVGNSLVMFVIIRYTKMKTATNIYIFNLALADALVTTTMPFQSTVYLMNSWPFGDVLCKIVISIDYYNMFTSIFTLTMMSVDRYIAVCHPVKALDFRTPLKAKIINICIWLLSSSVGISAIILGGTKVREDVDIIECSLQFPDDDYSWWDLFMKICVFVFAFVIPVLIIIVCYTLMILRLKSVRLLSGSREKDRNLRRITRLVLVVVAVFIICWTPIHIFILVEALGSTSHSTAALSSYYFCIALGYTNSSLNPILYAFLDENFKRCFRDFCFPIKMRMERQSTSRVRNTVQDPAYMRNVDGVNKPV
T2 sequence (P35372 whole entry): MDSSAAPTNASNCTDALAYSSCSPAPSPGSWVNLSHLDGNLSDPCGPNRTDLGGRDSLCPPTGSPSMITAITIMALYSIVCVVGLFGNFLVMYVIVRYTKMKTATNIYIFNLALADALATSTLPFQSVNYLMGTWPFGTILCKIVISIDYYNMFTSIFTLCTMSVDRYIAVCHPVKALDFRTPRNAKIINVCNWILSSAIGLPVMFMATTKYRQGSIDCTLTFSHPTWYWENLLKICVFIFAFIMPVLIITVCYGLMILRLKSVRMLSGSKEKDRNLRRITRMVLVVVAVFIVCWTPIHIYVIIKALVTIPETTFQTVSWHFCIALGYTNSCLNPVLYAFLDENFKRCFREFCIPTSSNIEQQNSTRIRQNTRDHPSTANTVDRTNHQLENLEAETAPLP
T6 sequence (P42866 whole entry): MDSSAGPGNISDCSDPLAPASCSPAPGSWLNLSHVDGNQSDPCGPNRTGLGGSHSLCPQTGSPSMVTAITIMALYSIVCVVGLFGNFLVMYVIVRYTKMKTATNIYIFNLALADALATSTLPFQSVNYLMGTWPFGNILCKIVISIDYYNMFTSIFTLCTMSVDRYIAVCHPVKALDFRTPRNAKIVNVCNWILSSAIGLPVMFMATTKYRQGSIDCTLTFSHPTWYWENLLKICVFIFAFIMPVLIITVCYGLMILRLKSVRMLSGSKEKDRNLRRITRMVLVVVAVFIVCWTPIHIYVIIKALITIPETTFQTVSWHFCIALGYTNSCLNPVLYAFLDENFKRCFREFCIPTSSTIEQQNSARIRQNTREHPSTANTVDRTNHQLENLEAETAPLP

With `NCC(O)CN1CC[C@@]23c4cc(O)ccc4C[C@@H]1[C@]21CC[C@@H]2[C@H]3[C@@H](CN2C(=O)c2ccccc2)C1` (single isomer, unassigned) [Compound 62a] the “κ Receptor reaction ratio at the maximum concentration (reference value)” value (“κ Receptor reaction ratio” below) [1] was “(1.7)^a %”, the EC50 [2] was over 100 nM and the Emax [2] was 106%. For the same compound, the EC50 [3] was under 1 nM and the Emax [3] was 108%.

With `NCCN1CC[C@@]23c4cc(O)ccc4C[C@@H]1[C@]21CC[C@@H]2[C@H]3[C@@H](CN2C(=O)c2ccccc2)C1` [Compound 13, [(1S,3aR,5aS,6R,11bR,11cS)-14-(2-aminoethyl)-10-hydroxy-1,2,3a,4,5,6,7,11c-octahydro-3H-6,11b-(epiminoethano)-1,5a-methanonaphtho[1,2-e]indol-3-yl](phenyl)methanone] the Ki [4] was under 10 nM, the “HERG channel inhibitory action” value [5] was under 50% and the EC50 [1] was over 100 nM. For the same compound, the Emax [1] was 12%, the “δ-receptor selectivity (Ki value ratio) μ/δ” value [6] was over 10 and the EC50 [2] was over 100 nM. For the same compound, the Emax [2] was 39%, the “δ-receptor selectivity (Ki value ratio) κ/δ” value [7] was over 10 and the EC50 [3] was under 10 nM. The Emax [3] was 101%.

With `O=C(c1ccccc1)N1C[C@H]2C[C@@]34CC[C@@H]1[C@@H]2[C@@]31CCN(C[C@@H]2CCCN2)[C@@H]4Cc2ccc(O)cc21` [Compound 19, [(1S,3aR,5aS,6R,11bR,11cS)-10-hydroxy-14-[[(2S)-pyrrolidin-2-yl]methyl]-1,2,3a,4,5,6,7,11c-octahydro-3H-6,11b-(epiminoethano)-1,5a-methanonaphtho[1,2-e]indol-3-yl](phenyl)methanone] the “HERG channel inhibitory action” value [5] was under 50%, the “κ Receptor reaction ratio” value [1] was “(2.6)^a %” and the EC50 [2] was over 100 nM. The Emax [2] was 27%, the EC50 [3] was under 10 nM and the Emax [3] was 106%.

Work on `CN1CCC[C@H]1CN1CCC23c4cc(O)ccc4CC1C21CCC2C3[C@@H](CN2C(=O)c2ccccc2)C1` (stereo partly drawn) [Compound 20, [(1S,3aR,5aS,6R,11bR,11cS)-10-hydroxy-14-[[(2S)-11-methylpyrrolidin-2-yl]methyl]-1,2,3a,4,5,6,7,11c-octahydro-3H-6,11b-(epiminoethano)-1,5a-methanonaphtho[1,2-e]indol-3-yl](phenyl)methanone] yielded an EC50 [1] of over 10 nM, an Emax [1] of 17% and an EC50 [2] of over 100 nM. For the same compound, the Emax [2] was 54%, the EC50 [3] was under 1 nM and the Emax [3] was 103%.

Compound `CN(C)CCN1CCC23c4cc(O)ccc4CC1C21CCC2C3[C@@H](CN2C(=O)c2ccccc2)C1` (some centres unmarked) [Compound 40] has an EC50 [1] of over 10 nM, an Emax [1] of 22% and an EC50 [2] of over 10 nM. For the same compound, the Emax [2] was 92%, the EC50 [3] was under 1 nM and the Emax [3] was 104%.

In the case of `NCCCN1CCC23c4cc(O)ccc4CC1C21CCC2C3[C@@H](CN2C(=O)c2ccccc2)C1` (some centres unmarked) [Compound 41], the “κ Receptor reaction ratio” value [1] is reported as “(15)^a %”, the EC50 [2] is reported as over 100 nM and the Emax [2] is reported as 97%. For the same compound, the EC50 [3] was under 1 nM and the Emax [3] was 103%.

`C[C@H](N)CN1CCC23c4cc(O)ccc4CC1C21CCC2C3[C@@H](CN2C(=O)c2ccccc2)C1` (some centres unmarked) [Compound 43] was tested, and the Ki [4] was under 1 nM, the “κ Receptor reaction ratio” value [1] was “(7.2)^a %” and the “δ-receptor selectivity (Ki value ratio) μ/δ” value [6] was over 10. The “μ Receptor reaction ratio at the maximum concentration (reference value)” value [2] was “(8.2)^a %”, the “δ-receptor selectivity (Ki value ratio) κ/δ” value [7] was over 10 and the EC50 [3] was under 10 nM. For the same compound, the Emax [3] was 109%.

In the case of `O=C(c1ccccc1)N1C[C@H]2CC34CCC1C2C31CCN(C[C@@H]2CCCCN2)C4Cc2ccc(O)cc21` (some centres unmarked) [Compound 47], the Ki [4] is reported as under 10 nM, the “δ-receptor selectivity (Ki value ratio) μ/δ” value [6] is reported as over 10 and the “δ-receptor selectivity (Ki value ratio) κ/δ” value [7] is reported as over 10.

Compound `O=C(c1ccccc1)N1C[C@H]2CC34CCC1C2C31CCN(CC2CNC2)C4Cc2ccc(O)cc21` (some centres unmarked) [Compound 49] has an EC50 [1] of over 100 nM, an Emax [1] of 28% and an EC50 [2] of over 100 nM. The Emax [2] was 105%, the EC50 [3] was under 1 nM and the Emax [3] was 108%.

In the case of `NCCCN1CCC23c4cc(O)ccc4CC1C21CCC2C3[C@@H](CN2C(=O)c2cccc3ccccc23)C1` (some centres unmarked) [Compound 55], the “κ Receptor reaction ratio” value [1] is reported as “(4.8)^a %”, the EC50 [2] is reported as over 10 nM and the Emax [2] is reported as 82%. It also gave an EC50 [3] of under 1 nM and an Emax [3] of 102%.

In the case of `N[C@@H](CO)CN1CC[C@@]23c4cc(O)ccc4C[C@@H]1[C@]21CC[C@@H]2[C@H]3[C@@H](CN2C(=O)c2ccccc2)C1` [Compound 64, [(1S,3aR,5aS,6R,11bR,11cS)-14-[(2R)-2-amino-3-hydroxypropyl]-10-hydroxy-1,2,3a,4,5,6,7,11c-octahydro-3H-6,11b-(epiminoethano)-1,5a-methanonaphtho[1,2-e]indol-3-yl](phenyl)methanone], the “HERG channel inhibitory action” value [5] is reported as under 50%, the “κ Receptor reaction ratio” value [1] is reported as “(9.0)^a %” and the “μ Receptor reaction ratio at the maximum concentration (reference value)” value [2] is reported as “(60)^a %”. The EC50 [3] was under 1 nM and the Emax [3] was 105%.

In the case of `Cc1cc(C)nc(N2C[C@H]3C[C@@]45CC[C@@H]2[C@@H]3[C@@]42CCN(CCN(C)C)[C@@H]5Cc3ccc(O)cc32)n1` [Compound 74, (1S,3aR,5aS,6R,11bR,11cS)-14-[2-(dimethylamino)ethyl]-3-(4,6-dimethylpyrimidin-2-yl)-2,3,3a,4,5,6,7,11c-octahydro-1H-6,11b-(epiminoethano)-1,5a-methanonaphtho[1,2-e]indol-10-ol], the EC50 [1] is reported as over 100 nM, the Emax [1] is reported as 46% and the EC50 [2] is reported as over 10 nM. For the same compound, the Emax [2] was 121%, the EC50 [3] was under 1 nM and the Emax [3] was 101%.

In the case of `Cc1cc(C)nc(N2C[C@H]3C[C@@]45CC[C@@H]2[C@@H]3[C@@]42CCN(CCCN)[C@@H]5Cc3ccc(O)cc32)n1` [Compound 76, (1S,3aR,5aS,6R,11bR,11cS)-14-(3-aminopropyl)-3-(4,6-dimethylpyrimidin-2-yl)-2,3,3a,4,5,6,7,11c-octahydro-1H-6,11b-(epiminoethano)-1,5a-methanonaphtho[1,2-e]indol-10-ol], the “HERG channel inhibitory action” value [5] is reported as under 50%.
